Structures can show the parent of a compound that is named as a salt.
Test: in vitro
Details: rat, gh3-tre-luc cells

| Compound | CC50 at 24 h (AC50 (uM) modified / 1000) | also measured |
| --- | --- | --- |
| CCCOc1sc(C(=O)N2CCC(c3cc(CN)ccc3F)CC2)c(C)c1Br [AVE8923] | 3.52 µM |  |
| Cc1ccccc1C(=O)Nc1ccc(C(=O)N2CCCC(O)c3cc(Cl)ccc32)c(C)c1 (stereo not shown) [Tolvaptan] | > 50 µM |  |
| C=CCOc1c(Br)cc(Br)cc1Br [1,3,5-Tribromo-2-(prop-2-en-1-yloxy)benzene] | > 90 µM |  |
| Cc1cc(Cl)ccc1N=CN(C)C [Chlordimeform hydrochloride] |  | CC50 at 24 h (AC50 (uM) modified / 1000, Tox21_110001=Tox21_301412, viability, 1 nM T3 present, 24 h): > 90 µM |
| Cc1ccc(OC(=O)CC(C)C)cc1 [4-Methylphenyl 3-methylbutanoate] | > 90 µM |  |
| CCN[C@H](C)Cc1cccc(C(F)(F)F)c1 [(-)-Fenfluramine hydrochloride] |  | CC50 at 24 h (AC50 (uM) modified / 1000, Tox21_110001=Tox21_112865, viability, 1 nM T3 present, 24 h): 52.7 µM |
| CCCCNC(=N)NC(=N)N [Buformin] | > 50 µM |  |
| O=C(O)c1ccccc1C(c1ccc(O)cc1)c1ccc(O)cc1 [Phenolphthalin] | > 90 µM |  |
| Cc1cnc2c(C(=O)O)c(Cl)ccc2c1 [Quinmerac] | > 90 µM |  |
| C[C@@H](O)C(=O)O [D-Lactic acid] | > 100 µM |  |
| O=C(O)c1cccc(O)c1 [3-Hydroxybenzoic acid] | > 90 µM |  |
| C1C[C@@H]2[C@H]3CC[C@H](C3)[C@@H]2C1 [Octahydro-exo-4,7-methano-1H-indene] | > 90 µM |  |
| C[Si]1(C)O[Si](C)(C)O[Si](C)(C)O[Si](C)(C)O[Si](C)(C)O1 [Decamethylcyclopentasiloxane] | > 90 µM |  |
| CCCC(CCC)C(=O)O [Valproic acid] | > 90 µM |  |
| COc1ccc(-c2ccccc2)cc1NNC(=O)OC(C)C [Bifenazate] | 87.4 µM |  |
| COc1ccc(CCNCC(O)COc2cccc(C)c2)cc1OC (stereo not shown) [Bevantolol hydrochloride] | 20.6 µM |  |
| CCCCC(=O)O[C@H]1CC[C@H]2[C@@H]3CCc4cc(O)ccc4[C@H]3CC[C@]12C [Estradiol valerate] | 41.5 µM |  |
| O=C(Cl)c1ccc(C(=O)Cl)cc1 [1,4-Benzenedicarbonyl dichloride] | > 90 µM |  |
| O=C(O)CS [Thioglycolic acid] | > 90 µM |  |
| Cc1ccc(-c2ccccc2)cc1 [4-Phenyltoluene] | > 90 µM |  |
| COP(=S)(OC)Oc1cc(Cl)c(Br)cc1Cl [Bromofos] |  | CC50 at 24 h (AC50 (uM) modified / 1000, Tox21_110001=Tox21_301918, viability, 1 nM T3 present, 24 h): > 90 µM |

| Compound | CC50 at 24 h (AC50 (uM) modified / 1000) | also measured |
| --- | --- | --- |
| COC[C@@H](c1ccc(C(F)(F)F)cc1)N1CCN(C2(C)CCN(C(=O)c3c(C)ncnc3C)CC2)C[C@@H]1C [Vicriviroc maleate] | > 50 µM |  |
| O=C1CC[C@@H](C(=O)N[C@H]2C[C@@H]2c2ccccc2)N1 [Rolicyprine] | > 50 µM |  |
| O=C1c2ccccc2-c2n[nH]c3cccc1c23 [SP600125] | > 50 µM |  |
| Brc1nc2ccccc2s1 [2-Bromobenzothiazole] | > 90 µM |  |
| O=C(O)C(Cl)Br (stereo not shown) [Bromochloroacetic acid] |  | CC50 at 24 h (AC50 (uM) modified / 1000, Tox21_110001=Tox21_200894, viability, 1 nM T3 present, 24 h): > 90 µM |
| O=C1CCCCCCCCCCCCCCCO1 [Oxacycloheptadecan-2-one] | > 90 µM |  |
| Nc1ccc(Oc2ccc(Cl)cc2)cc1 [4-Chloro-4'-aminodiphenyl ether] | > 90 µM |  |
| Cc1nc(N)nc(N)n1 [6-Methyl-1,3,5-triazine-2,4-diamine] | > 90 µM |  |
| Cc1cc(C2CCCCC2)n(O)c(=O)c1 [Ciclopirox olamine] | 1.9 µM |  |
| CC(CO)Oc1ccccc1 (stereo not shown) [2-Phenoxy-1-propanol] | > 90 µM |  |
| CCCN(CCC)C(=O)CN [C.I. Solvent Black 5] | 3.55 µM |  |
| CCOC(=O)C=CC(=O)O [4-Ethoxy-4-oxobut-2-enoic acid] | > 90 µM |  |
| CC(C)C[C@H](NC(=O)OCC1c2ccccc2-c2ccccc21)C(=O)O [N-(9-Fluorenylmethoxycarbonyl)-L-leucine] | > 90 µM |  |
| O=C(O)CCCCCCCCCC(=O)O [Undecanedioic acid] | > 90 µM |  |
| Nc1c(CC(=O)O)cccc1C(=O)c1ccc(Br)cc1 [Bromfenac sodium sesquihydrate] | > 50 µM |  |
| Nc1nc(=O)n([C@@H]2CS[C@H](CO)O2)cc1F [Emtricitabine] | > 50 µM |  |
| O=C(OCc1ccccc1)C(=O)OCc1ccccc1 [Dibenzyl oxalate] | > 90 µM |  |
| C[C@H]1CNCCc2ccc(Cl)cc21 [Lorcaserin] |  | CC50 at 24 h (AC50 (uM) modified / 1000, Tox21_110001=Tox21_113018, viability, 1 nM T3 present, 24 h): > 50 µM |
| CC(=O)N[C@@H](Cc1ccc(O)cc1)C(=O)O [N-Acetyl-L-tyrosine] | > 50 µM |  |
| Cc1ccc(NC(=O)c2ccc(CN3CCN(C)CC3)cc2)cc1Nc1nccc(-c2cccnc2)n1 [Imatinib mesylate] | 18.5 µM |  |
| C=CCc1ccc(O)c(OC)c1 [Eugenol] | > 90 µM |  |

| Compound | CC50 at 24 h (AC50 (uM) modified / 1000) | also measured |
| --- | --- | --- |
| CC(O)CN(CCCN(C)C)CCCN(C)C (stereo not shown) [1-{Bis[3-(dimethylamino)propyl]amino}propan-2-ol] | > 90 µM |  |
| CC(=O)[C@@]1(O)CC[C@H]2[C@@H]3C=C(Cl)C4=CC(=O)[C@@H]5C[C@@H]5[C@]4(C)[C@H]3CC[C@@]21C [Cyproterone] | > 50 µM |  |
| CC(C)CCCCCCOC(=O)c1ccc(C(=O)OCCCCCCC(C)C)c(C(=O)OCCCCCCC(C)C)c1 [Triisononyl trimellitate] | > 90 µM |  |
| CCCCCCCCCCCCCCCC[N+](C)(C)CCN(Cc1ccc(OC)cc1)c1ncccn1 [Thonzonium bromide] | 14.6 µM |  |
| NC=O [Formamide] | > 100 µM |  |
| CO[C@@]1(NC(=O)CSCC#N)C(=O)N2C(C(=O)O)=C(CSc3nnnn3C)CS[C@@H]21 [Cefmetazole sodium] | > 50 µM |  |
| CSc1ccc(Cl)cc1 [4-Chlorophenyl methyl sulfide] | > 90 µM |  |
| CCCC(=O)OC/C=C(\C)CCC=C(C)C [Geranyl butyrate] | > 90 µM |  |
| O=c1[nH]c2ccccc2n1CCCN1CCN(C(c2ccccc2)c2ccccc2)CC1 [Oxatomide] | 20.3 µM |  |
| O=C(CCCN1CCC2(CC1)C(=O)NCN2c1ccccc1)c1ccc(F)cc1 [Spiperone] | 14.1 µM |  |
| c1cc(-c2ccncc2)ccn1 [4,4'-Bipyridine] | > 90 µM |  |
| C=C1/C(=C\C=C2/CCC[C@]3(C)[C@@H]([C@H](C)OCCC(C)(C)O)CC[C@@H]23)C[C@@H](O)C[C@@H]1O [Maxacalcitol] | > 50 µM |  |
| Cc1ccccc1[N+](=O)[O-] [2-Nitrotoluene] | > 90 µM |  |
| O=CC1CC=CCC1 (stereo not shown) [3-Cyclohexene-1-carboxaldehyde] | > 90 µM |  |
| N[C@H](C(=O)O)[C@@H]1CC(Cl)=NO1 [Acivicin] | 3.86 µM |  |
| CC(=O)OCC(=O)Nc1cc(C#N)cc(NC(=O)COC(C)=O)c1Cl [Acreozast] | > 50 µM |  |
| CC[C@]1(O)C[C@H]2CN(CCc3c([nH]c4ccccc34)[C@@](C(=O)OC)(c3cc4c(cc3OC)N(C=O)[C@H]3[C@@](O)(C(=O)OC)[C@H](OC(C)=O)[C@]5(CC)C=CCN6CC[C@]43[C@@H]65)C2)C1 [Vincristine] | 0.12 µM |  |
| CC(C)=CCC1C(=O)N(c2ccccc2)N(c2ccccc2)C1=O [Feprazone] | 48.7 µM |  |
| CCCCCOC(=O)CCC [Pentyl butyrate] | > 90 µM |  |
| CCCC1O[C@@H]2C[C@H]3[C@@H]4CCC5=CC(=O)C=C[C@]5(C)[C@H]4[C@@H](O)C[C@]3(C)[C@]2(C(=O)CO)O1 (stereo partly shown) [Budesonide] | > 90 µM |  |
| Cc1c(I)c(=O)n(-c2ccccc2)n1C [Iodoantipyrine] | > 50 µM |  |

| Compound | CC50 at 24 h (AC50 (uM) modified / 1000) | also measured |
| --- | --- | --- |
| CCC(=O)OC/C=C/c1ccccc1 [(2E)-3-Phenylprop-2-en-1-yl propanoate] | > 90 µM |  |
| CCCCCCCCCCCCOCCOCCOCCOCCOCCOCCOCCOCCOCCO [Polyoxyethylene (9) lauryl ether] | 9.84 µM |  |
| CCCCCCCCCCCCCCCCCC(=O)OC[C@@H](O)[C@H]1OC[C@H](O)[C@H]1O [Anhydrosorbitol stearate] | > 50 µM |  |
| CCC(=O)O[C@]1(c2ccccc2)CCN(C)C[C@H]1C [Betaprodine] |  | CC50 at 24 h (AC50 (uM) modified / 1000, Tox21_110001=Tox21_112620, viability, 1 nM T3 present, 24 h): > 50 µM |
| O=C(CCCN1CCC(n2c(=S)[nH]c3ccccc32)CC1)c1ccc(F)cc1 [Timiperone] | 23.9 µM |  |
| C1OCOCO1 [1,3,5-Trioxane] | > 90 µM |  |
| O=Cc1cc(O)ccc1Br [2-Bromo-5-hydroxy-benzaldehyde] | > 90 µM |  |
| C=Cc1ccccn1 [2-Vinylpyridine] | > 90 µM |  |
| Cc1cc(SCc2sc(-c3ccc(C(F)(F)F)c(F)c3)nc2C)ccc1OCC(=O)O [{4-[({2-[3-Fluoro-4-(trifluoromethyl)phenyl]-4-methyl-1,3-thiazol-5-yl}methyl)sulfanyl]-2-methylphenoxy}acetic acid] | 64.8 µM |  |
| C[C@@H]1CCC[C@H](C)N1 [cis-Nanophine hydrochloride] | > 20 µM |  |
| C[C@@H](NCCc1ccc(O)cc1)[C@@H](O)c1ccc(O)cc1 (racemic) [Ritodrine hydrochloride] | > 50 µM |  |
| COc1cc2c(cc1OC)-c1c/c(=N\c3c(C)cc(C)cc3C)n(C)c(=O)n1CC2 [Trequinsin hydrochloride] | 20.3 µM |  |
| O=C(O)c1ccccc1S [2-Thiosalicylic acid] | > 50 µM |  |
| O=C(O)CCCCCCC(=O)O [Octanedioic acid] | > 90 µM |  |
| COC(=O)c1ccccc1C(=O)O [Monomethyl phthalate] | > 90 µM |  |
| CCOc1ccc2ccccc2c1C(=O)N[C@@H]1C(=O)N2[C@@H]1SC(C)(C)[C@@H]2C(=O)O [Nafcillin sodium monohydrate] | > 20 µM |  |
| O=S(=O)(O)c1ccc(O)cc1 [Sodium 4-hydroxybenzenesulfonate] | > 90 µM |  |
| C=CC(=O)OCCCCCCCCCC [Decyl prop-2-enoate] | > 90 µM |  |
| O=C1c2ccccc2C(=O)c2c(O)c(O)cc(O)c21 [Purpurin] | 71.9 µM |  |

From publication PMC6792352, “Limited Chemical Structural Diversity Found to Modulate Thyroid Hormone Receptor in the Tox21 Chemical Library” (Environmental Health Perspectives, 2019)
